# In patent US9439843B2, “Oral care compositions” (Colgate-Palmolive Company, priority 2011, dated 2016):
# Test: Solubility of isobutyl magnolol (statement in words)
# Assay type: physicochemical
# Details: background statement
smiles,measurement,value
"CC(C)Cc1ccc(O)c(-c2cc(CC(C)C)ccc2O)c1 [isobutyl magnolol, 5,5′-di(2-methylpropyl)-biphenyl-2,2′-diol]",solubility both in water and in oil,extremely poor
